# Reference: the supplement of paper PMC10307832
# What was measured:
# Experiment in all cases: relative viability (nuclei count vs DMSO), 5 days (fraction); higher = more cells survive
# IPA-3 + Olaparib = compound: C1=CC=C2C(=C1)C=CC(=C2SSC3=C(C=CC4=CC=CC=C43)O)O [IPA-3] + O=C(c1cc(Cc2n[nH]c(=O)c3ccccc23)ccc1F)N1CCN(C(=O)C2CC2)CC1 [Olaparib] (partner 8 µM)
# In short: (§1)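 Dosing by pin tool came one day after lung cancer cell lines were seeded in 1536-well plates, using either one drug or a fixed anchor-drug dose plus five library-drug doses (not always all listed) in √10 steps. After 5 days, nuclei were counted on 4× images. Relative viability is treated-well nuclei count divided by vehicle-well nuclei count, and values are medians of duplicate plates.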
# RAF265 + Lapatinib = compound: Cn1c(Nc2ccc(C(F)(F)F)cc2)nc2cc(Oc3ccnc(-c4ncc(C(F)(F)F)[nH]4)c3)ccc21 [RAF265] + CS(=O)(=O)CCNCc1ccc(-c2ccc3ncnc(Nc4ccc(OCc5cccc(F)c5)c(Cl)c4)c3c2)o1 [Lapatinib] (partner 2 µM)
# In short: as §1
# Doramapimod + Trametinib = compound: Cc1ccc(-n2nc(C(C)(C)C)cc2NC(=O)Nc2ccc(OCCN3CCOCC3)c3ccccc23)cc1 [Doramapimod] + CC(=O)Nc1cccc(-n2c(=O)n(C3CC3)c(=O)c3c(Nc4ccc(I)cc4F)n(C)c(=O)c(C)c32)c1 [Trametinib] (partner 0.02 µM)
# In short: as §1
# RAF265 + Dasatinib = compound: Cn1c(Nc2ccc(C(F)(F)F)cc2)nc2cc(Oc3ccnc(-c4ncc(C(F)(F)F)[nH]4)c3)ccc21 [RAF265] + Cc1nc(Nc2ncc(C(=O)Nc3c(C)cccc3Cl)s2)cc(N2CCN(CCO)CC2)n1 [Dasatinib] (partner 0.075 µM)
# In short: as §1
cell line,measurement,setting,value
UMC-11,relative viability,IPA-3 + Olaparib; first compound 0.2 µM,1.06
same,relative viability,IPA-3 + Olaparib; first compound 0.6325 µM,0.459
same,relative viability,IPA-3 + Olaparib; first compound 2 µM,0.338
same,relative viability,IPA-3 + Olaparib; first compound 6.325 µM,0.361
same,relative viability,IPA-3 + Olaparib; first compound 20 µM,0.384
same,relative viability,RAF265 + Lapatinib; first compound 0.01 µM,0.97
same,relative viability,RAF265 + Lapatinib; first compound 0.03162 µM,0.859
same,relative viability,RAF265 + Lapatinib; first compound 0.1 µM,0.968
same,relative viability,RAF265 + Lapatinib; first compound 0.3162 µM,1.07
same,relative viability,RAF265 + Lapatinib; first compound 1 µM,0.776
same,relative viability,Doramapimod + Trametinib; first compound 0.02 µM,0.689
same,relative viability,Doramapimod + Trametinib; first compound 0.06325 µM,0.638
same,relative viability,Doramapimod + Trametinib; first compound 0.2 µM,0.621
same,relative viability,Doramapimod + Trametinib; first compound 0.6325 µM,0.463
same,relative viability,Doramapimod + Trametinib; first compound 2 µM,0.539
same,relative viability,RAF265 + Dasatinib; first compound 0.01 µM,0.443
same,relative viability,RAF265 + Dasatinib; first compound 0.03162 µM,0.442
same,relative viability,RAF265 + Dasatinib; first compound 0.1 µM,0.457
same,relative viability,RAF265 + Dasatinib; first compound 0.3162 µM,0.444
same,relative viability,RAF265 + Dasatinib; first compound 1 µM,0.4
